Data on four molecules can be found in PMC2861598, “Ligand Binding and Crystal Structures of the Substrate-Binding Domain of the ABC Transporter OpuA” (PLoS ONE, 2010).

Where “and” joins values, the source holds several entries; their conditions need not be identical. Equal entries are not always repeated. Entries after “also recorded” stand apart in the source; their conditions may differ. Where two headings read alike, the source gives them in different places.

Data set [1] deals with T1, OpuAC (substrate-binding domain of OpuA) (Lactococcus lactis, UniProt Q9RQ05).
T1 sequence (Q9RQ05 320-573): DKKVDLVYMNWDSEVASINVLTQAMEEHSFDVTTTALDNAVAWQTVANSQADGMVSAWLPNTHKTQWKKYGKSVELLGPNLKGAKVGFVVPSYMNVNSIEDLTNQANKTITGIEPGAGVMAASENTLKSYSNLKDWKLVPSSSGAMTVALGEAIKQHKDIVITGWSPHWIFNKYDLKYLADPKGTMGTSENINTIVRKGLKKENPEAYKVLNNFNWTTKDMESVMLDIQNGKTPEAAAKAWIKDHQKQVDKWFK
The experiment in a line: Ligand binding to purified OpuAC, intrinsic protein fluorescence (direct titration). To be noted: for ΔFmax: pH7.0. As to the method: (§1) Fluorescence spectra were obtained with a Fluorolog®-3 (Jobin Yvon) spectrofluorometer. A quartz-cuvette containing 800 µL of protein sample was incubated for 10 minutes at 25°C under constant stirring before stepwise addition of the substrate (or buffer as control), using a Hamilton syringe pump (Harvard apparatus). Samples were incubated for 5 seconds before the fluorescence signal was collected for 20 seconds to obtain an averaged value at each substrate concentration.
(§2) For the intrinsic protein fluorescence measurements, the excitation and emission wavelengths were 295 and 360 nm (and slit widths of 1 and 5 nm), respectively. To determine the salt dependence of ligand-binding to purified OpuA, the buffer was exchanged to various KPi concentrations (12.5–250 mM), pH 7.0, 20% glycerol and 0.05% DDM, using a NAP10 column (GE Healthcare). Corrections for background fluorescence changes were made by titrations with buffer.
(§3) Fluorescence titrations were analyzed essentially as described by Lanfermeijer. Curve fitting was performed in Origin (OriginLab).

Data set [2] concerns OpuA reconstituted in proteoliposomes. The data set is described as follows: Substrate transport in OpuA-containing proteoliposomes, filter-based assay. Format: biochemical, Lactococcus lactis. To be noted: 14C-labeled substrate, 50 µM (51 µM) or 5 mM, up to 30 min, 200 mM KPi pH 7 external. On the procedure:
Proteoliposomes were prepared as described previously by Geertsma et al. with an ATP regenerating system present and using 200 mM KPi, pH 7, as external medium. The transport activity was measured using a filter-based assay as described by Geertsma et al. in a time dependent way (up to 30 min), using a fixed concentration of 50 µM or 5 mM of substrate.

Data set [3] has as its target T2, OpuAC (Lactococcus lactis, UniProt Q9RQ05).
T2 sequence (Q9RQ05 320-573): T1 sequence (Q9RQ05 320-573)
The data set is described as follows: Competitive inhibition of glycine betaine-induced fluorescence changes. Format: binding. As to the method: as §1, §2, §3

The target of data set [4] is T2, OpuAC. The data set is described as follows: Isothermal titration calorimetry of glycine betaine binding. The settings on record: ITC. As to the method: 200 µL of OpuAC (concentrated to 50 µM in 150 mM KPi, pH 7) was added to the cell. […] Typically, 20 injections of 2 µL volume were made with intervals of 120 seconds between each addition.
Data set [5] deals with T3, purified OpuA (Lactococcus lactis subsp. lactis, UniProt Q7DAU8).
T3 sequence (Q7DAU8 1-573): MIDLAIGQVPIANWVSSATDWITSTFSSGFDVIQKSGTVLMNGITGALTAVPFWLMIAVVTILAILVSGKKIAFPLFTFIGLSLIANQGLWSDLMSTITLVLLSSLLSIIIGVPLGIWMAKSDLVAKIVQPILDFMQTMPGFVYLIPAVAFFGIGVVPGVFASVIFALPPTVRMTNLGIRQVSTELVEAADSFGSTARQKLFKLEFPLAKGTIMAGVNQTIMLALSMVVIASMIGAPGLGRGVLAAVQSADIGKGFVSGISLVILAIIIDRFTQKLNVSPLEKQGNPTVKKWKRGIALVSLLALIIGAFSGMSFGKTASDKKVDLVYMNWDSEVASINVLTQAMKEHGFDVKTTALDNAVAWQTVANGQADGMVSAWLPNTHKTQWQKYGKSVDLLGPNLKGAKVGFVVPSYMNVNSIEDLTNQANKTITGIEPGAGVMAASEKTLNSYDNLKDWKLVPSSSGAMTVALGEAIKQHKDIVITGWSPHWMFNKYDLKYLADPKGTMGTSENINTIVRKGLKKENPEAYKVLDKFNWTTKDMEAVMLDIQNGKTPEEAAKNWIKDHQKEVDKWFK
T3 sequence (Q9KIF7 1-408 partner): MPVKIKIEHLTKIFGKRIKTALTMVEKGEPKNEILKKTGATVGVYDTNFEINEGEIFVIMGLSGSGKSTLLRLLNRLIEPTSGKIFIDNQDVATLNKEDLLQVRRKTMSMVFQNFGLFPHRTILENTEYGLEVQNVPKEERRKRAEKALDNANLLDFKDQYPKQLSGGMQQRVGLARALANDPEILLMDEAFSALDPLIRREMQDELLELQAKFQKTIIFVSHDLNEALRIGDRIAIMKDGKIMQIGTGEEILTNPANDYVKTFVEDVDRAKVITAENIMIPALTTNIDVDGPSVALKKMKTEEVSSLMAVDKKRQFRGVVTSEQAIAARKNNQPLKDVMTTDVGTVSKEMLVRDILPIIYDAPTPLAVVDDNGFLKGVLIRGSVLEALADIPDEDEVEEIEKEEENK
The data set is described as follows: Glycine betaine binding to purified DDM-solubilized OpuA, intrinsic protein fluorescence. The settings on record: for Kd / ΔFmax: pH7.0. As to the method:
as §1, §2, §3

A further data set concerns OpuAΔCBS. The data set is described as follows: Ligand binding to OpuAΔCBS. Details: species or system Lactococcus lactis. To be noted: data not shown.
For the next data set, the system named is OpuAΔSBD. The experiment in a line: Ligand binding to OpuAΔSBD. Details: species or system Lactococcus lactis. To be noted: data not shown.
In data set [6] the target is T3, purified OpuA. The experiment in a line: Filter-based assay with radio-labeled glycine betaine (ammonium sulfate precipitation). Format: binding. As to the method: This method is based on the principle that upon salting-out of the protein (by ammonium sulfate), the substrate remains trapped in the ligand-binding site. For these measurements, purified OpuA in the presence of 0.05% (w/v) n-dodecyl-β-maltopyranoside (DDM) was mixed such that the protein (at a final concentration of 100 µg/mL) was in a buffer composed of 10, 50 or 250 mM KPi pH7.0, 20% glycerol and 0.05% DDM. The binding assays were carried in a volume of 100 µL. […] The mixture was filtered rapidly through 0.45 µm pore-size cellulose nitrate filters. The filters were washed twice with 2 ml ammonium sulfate solution. Subsequently, the filters were placed in an open plastic vial and dried under heating in an oven at 37°C for 2 hours. The radioactivity on the filters was measured via liquid scintillation counting, using emulsifier plus scintillation liquid (Perkin Elmer). Measurements were corrected for background signals and the average of the corrected data was fitted as described under fluorescence measurements.

Data set [7] concerns the target OpuA in a lipidic environment. On the set-up: method as in PMID 14609945. The settings on record: read-out: dissociation constant; cited from earlier work.
Data set [8] deals with T3, purified OpuA. The data set is described as follows: Glycine betaine binding to purified DDM-solubilized OpuA, intrinsic protein fluorescence. The settings on record: OpuA solubilized in DDM; over all salt concentrations (10–250 mM KPi); read-out: dissociation constant (Kd).

Take `C[N+](C)(C)CC(O)CC(=O)[O-]` (centres unmarked) [Carnitine]: the “fluorescence response on direct titration” value in data set [1] (∼0.5 µM OpuAC) is reported as “did not reach a stable end-level”. Further, the “transport into OpuA-containing proteoliposomes” value in data set [2] was “not taken up”. Also, at OpuAC [3], the Ki was 65000 ± 11000 µM.

Consider `O=C(O)[C@@H]1CCCN1` [Proline], for which the “transport into OpuA-containing proteoliposomes” value was “no accumulation of the proline” in data set [2]; “entered the vesicles slowly but at an equal rate in the proteoliposomes and the liposomes devoid of OpuA” in data set [2] (listed as proline).

In the case of `C[N+]1(C)CCC[C@H]1C(=O)[O-]` [Proline betaine], the Ki at OpuAC [3] (inhibition of glycine betaine binding, ∼0.5 µM OpuAC) is 41 ± 8 µM; at OpuAC [3] (inhibition of glycine betaine binding, ∼0.5 µM OpuAC, listed as proline betaine), about 41 µM.

Consider `C[N+](C)(C)CC(=O)[O-]` [glycine betaine], for which the “glycine betaine bound per mol of OpuAC” value on OpuAC [4] (50 µM OpuAC, 150 mM KPi pH 7, 25°C) is 0.7 mol. In addition, at OpuAC [4] (25°C), the Gibbs free energy is -7.5 kcal/mol. Besides, the “enthalpy change (ΔH)” value on OpuAC [4] (25°C) is -3.8 ± 0.1 kcal/mol. In addition, the bound glycine betaine in [1] (19.6 µM OpuAC in 150 mM KPi pH 7.0) is on record as 0.74 mol glycine betaine per mol of OpuAC. The same molecule displayed a bound substrate in data set [1] (19.6 µM OpuAC in 150 mM KPi pH 7.0, data fit) of 14.5 ± 1.6 µM. Also, the ΔFmax is 23.6±1.1% in [1] (OpuAC, 12.5 mM KPi); 23.4±0.9% in data set [1] (OpuAC, 50 mM KPi); 23.1±1.2% in data set [1] (OpuAC, 250 mM KPi); 9.9±0.3% on purified OpuA [5] (12.5 mM KPi); 10.8±0.4% on purified OpuA [5] (50 mM KPi); 9.3±0.2% on purified OpuA [5] (250 mM KPi). The maximal fluorescence change in [1] (OpuAC, over all salt concentrations) is on record as 23–24%; on purified OpuA [5] (over all salt concentrations) it was 9–11%. Further, the “amount of glycine betaine bound” value in data set [1] (very high protein concentration) was found to be 0.74 mol/mol OpuAC. Further, at purified OpuA [5], the “increase of dissociation constant in DDM-solubilized state versus lipidic environment” value is recorded as “around 10 fold”. Further, the Kd at purified OpuA [5] (12.5 mM KPi) is 6 ± 0.5 µM; on purified OpuA [5] (50 mM KPi), 6 ± 0.7 µM; on purified OpuA [5] (250 mM KPi), 5.2 ± 0.2 µM; on purified OpuA [6] (averaged from duplicate measurements for all salt concentrations (10, 50, 250 mM KPi), 30°C), 7.3 µM; in data set [7], about 0.5 µM; at purified OpuA [8], 4 to 6 µM and 5 to 6 µM. Also, in the data set on OpuAΔCBS, the “effect of deletion of the CBS domains on dissociation constant” value is “did not alter the dissociation constant”. For the same molecule, in the data set on OpuAΔSBD, the glycine betaine binding entry is on record as “did not show any glycine betaine binding”. Also, in [2], the “transport into OpuA-containing proteoliposomes” value is “transported against a concentration gradient; also recorded: transport against a large concentration gradient”. Further, the “maximal number of binding sites” value at purified OpuA [6] (all salt concentrations) is about 3 nmol/mg OpuA.

A word on the Ki: it is the equilibrium dissociation constant of an inhibitor or competing ligand from its target. Higher therefore signals weaker binding.
